Experimental data as given in the supplement of paper PMC8967900.

Experiments:
Assay in all cases: selective drug sensitivity score (sDSS, relative to normal bone marrow) (sDSS (score)); higher = more potent and effective on the cell line relative to normal bone marrow cells
Conditions in all cases: 72 h
[1] = system: 380
[2] = system: COG-LL-319h
[3] = system: COG-LL-355h
[4] = system: COG-LL-402h
[5] = system: DND-41
[6] = system: HPB-ALL
[7] = system: KASUMI-10
[8] = system: KASUMI-9
[9] = system: KOPN-8
[10] = system: LC4-1
[11] = system: MHH-CALL-3
[12] = system: MN-60
[13] = system: MOLT-14
[14] = system: MOLT-4
[15] = system: NALL-1
[16] = system: NALM-16
[17] = system: P12-ICHIKAWA
[18] = system: REH
[19] = system: RPMI-8402
[20] = system: TMD5
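Further: ALL cell lines in 384-well plates, five doses spanning 10,000-fold, each plate scaled between vehicle and 100 µmol/L benzalkonium chloride controls, sDSS an adapted area-under-curve metric.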

| SMILES | selective drug sensitivity score [1] | selective drug sensitivity score [2] | selective drug sensitivity score [3] | selective drug sensitivity score [4] | selective drug sensitivity score [5] | selective drug sensitivity score [6] | selective drug sensitivity score [7] | selective drug sensitivity score [8] | selective drug sensitivity score [9] | selective drug sensitivity score [10] | selective drug sensitivity score [11] | selective drug sensitivity score [12] | selective drug sensitivity score [13] | selective drug sensitivity score [14] | selective drug sensitivity score [15] | selective drug sensitivity score [16] | selective drug sensitivity score [17] | selective drug sensitivity score [18] | selective drug sensitivity score [19] | selective drug sensitivity score [20] |
| --- | --- | --- | --- | --- | --- | --- | --- | --- | --- | --- | --- | --- | --- | --- | --- | --- | --- | --- | --- | --- |
| CCN(CC)CCCC(C)Nc1c2ccc(Cl)cc2nc2ccc(OC)cc12 (stereo not given) [Mepacrine] (top concentration 50000 nM) | -1.7 | -2.9 | -3.3 | 2.7 | -5.1 | -6.8 | 0.6 | -3.6 | 0.1 | -4 | -1.2 | -5.7 | -0.7 | -0.6 | -10 | -7.9 | -7.8 | -3.3 | -7.1 | -7.6 |
| COc1nc(N)nc2c1ncn2[C@@H]1O[C@H](CO)[C@@H](O)[C@@H]1O [Nelarabine] (top concentration 10000 nM) | -6.32 | 4.78 | -6.22 | -2.32 | 8.98 | -2.22 | -5.82 | 1.98 | -7.82 | -7.22 | -3.72 | -10.2 | 8.78 | -0.72 | -10.2 | -9.52 | 4.68 | -6.32 | 2.68 | -10.2 |
| Nc1nc2[nH]cnc2c(=S)[nH]1 [Thioguanine] (top concentration 10000 nM) | 6.04 | 18.6 | 4.04 | 6.34 | 13.1 | 11.2 | 5.24 | 11.2 | 13.2 | 12.4 | -1.36 | 10 | 15.7 | 14.2 | 8.64 | 7.74 | 13.6 | 10.8 | 14.9 | -3.46 |
| Cc1cccc(-c2[nH]c(CNc3ccccc3F)nc2-c2ccc3ncnn3c2)n1 [Vactosertib (TEW-7197)] (top concentration 2500 nM) | 0.8 | 7.2 | 1.2 | 1.1 | 3 | -0.5 | -0.5 | 1.4 | -0.5 | -0.1 | -0.5 | -0.1 | 0.8 | 2.3 | -0.4 | -0.4 | -0.5 | -0.5 | -0.5 | -0.5 |
| Cc1c(N)nc([C@H](CC(N)=O)NC[C@H](N)C(N)=O)nc1C(=O)N[C@H](C(=O)N[C@H](C)[C@@H](O)[C@H](C)C(=O)N[C@H](C(=O)NCCc1nc(-c2nc(C(=O)NCCC[S+](C)C)cs2)cs1)[C@@H](C)O)[C@@H](O[C@@H]1O[C@@H](CO)[C@@H](O)[C@H](O)[C@@H]1O[C@H]1O[C@H](CO)[C@@H](O)[C@H](OC(N)=O)[C@@H]1O)c1c[nH]cn1 [Bleomycin] (top concentration 10000 nM) | 4.34 | 7.84 | 4.14 | 2.84 | 1.14 | -1.86 | 1.14 | 6.24 | 7.34 | 0.54 | 4.14 | -1.86 | 0.94 | 2.24 | -1.56 | -1.86 | -0.56 | 9.44 | -1.36 | 7.34 |
| CC(C)(C)c1cc(NC(=O)Nc2ccc(-c3cn4c(n3)sc3cc(OCCN5CCOCC5)ccc34)cc2)no1 [Quizartinib] (top concentration 1000 nM) | -1.52 | 5.48 | -1.02 | -1.52 | 5.38 | 5.18 | 17.8 | -0.02 | 7.58 | 4.78 | -1.52 | -1.52 | -1.02 | -0.82 | -1.02 | -1.32 | 0.18 | -1.52 | 1.18 | -1.52 |
| Cc1sc2c(c1C)C(c1ccc(Cl)cc1)=N[C@@H](CC(=O)OC(C)(C)C)c1nnc(C)n1-2 [JQ1] (top concentration 10000 nM) | -0.88 | 12.1 | 3.72 | 8.12 | 2.52 | 1.32 | 7.22 | 11.8 | 11.7 | 5.02 | 16 | 6.62 | -0.58 | -4.28 | 0.42 | 2.02 | 5.12 | -3.58 | 3.12 | -3.08 |
| Nc1nccc(-c2c(-c3ccc(F)cc3)ncn2C2CCCCC2)n1 (top concentration 10000 nM) | 1.4 | 2.5 | 0 | 0.7 | 3.3 | 0.4 | 2.5 | 1.7 | 9.2 | 3.1 | 0.1 | 0 | 0 | 0.4 | 0.1 | 0.9 | 0.1 | 0.8 | 0.6 | 1.5 |
| Nc1cc(F)ccc1NC(=O)/C=C/c1cnn(C/C=C/c2ccccc2)c1 [RGFP966] (top concentration 10000 nM) | 12.9 | 17.5 | 4.84 | 6.84 | 6.84 | 11 | 9.44 | 13.5 | 11.5 | 12.2 | 12.3 | 3.04 | 17.1 | 8.94 | 12.2 | 6.24 | 17.8 | 17.1 | 10.5 | 8.54 |
| CNC(=O)c1ccccc1Nc1nc(Nc2ccc3c(c2OC)CCC[C@H](N2CCN(CCO)CC2)C3)ncc1Cl (top concentration 5000 nM) | 2.06 | 8.86 | 6.96 | -0.84 | 0.06 | 1.66 | 5.66 | 0.26 | 0.76 | 2.96 | -1.94 | -2.24 | 1.56 | -0.74 | -3.34 | -2.44 | -2.84 | -2.24 | -0.74 | -2.74 |
| COc1cc(OC)c(/C=C/S(=O)(=O)Cc2ccc(OC)c(NCC(=O)O)c2)c(OC)c1 [Rigosertib] (top concentration 10000 nM) | 14.3 | 4.96 | 4.16 | 14.2 | 9.06 | 13.5 | 12 | 18.3 | 18.4 | 16.6 | 13.4 | 8.96 | 17.9 | 15.9 | 16.5 | 12.8 | 10.4 | 14 | 13.3 | 8.16 |
| COc1cccc2c1c(O)c(C(=O)N(C)c1ccc(C(F)(F)F)cc1)c(=O)n2C [Tasquinimod] (top concentration 10000 nM) | -0.42 | 16.6 | -0.42 | -0.42 | 1.08 | -0.42 | -0.42 | -0.42 | -0.42 | -0.42 | -0.42 | -0.22 | -0.42 | -0.42 | -0.42 | -0.42 | -0.42 | -0.42 | -0.42 | -0.42 |
| Cc1ccc(NC(=O)c2ccc(CN3CCN(C)CC3)cc2)cc1Nc1nc(-c2cccnc2)cs1 [Masitinib] (top concentration 10000 nM) | -4.38 | -3.88 | -1.78 | -1.48 | -0.28 | -4.18 | -3.48 | 1.22 | -1.58 | -2.18 | -4.38 | -1.58 | 1.12 | -0.38 | -4.38 | -4.38 | 0.32 | -0.98 | 1.82 | 1.82 |
| CNC(=O)c1ccccc1Sc1ccc2c(/C=C/c3ccccn3)n[nH]c2c1 [Axitinib] (top concentration 10000 nM) | 1.56 | 7.96 | -0.74 | 5.86 | 0.16 | 7.56 | 1.86 | 8.36 | 6.06 | 11.8 | -2.44 | -2.94 | 8.56 | 12.2 | 5.56 | -2.34 | 12.1 | 9.36 | 6.06 | 6.76 |
| COc1ccc(-c2nc(N3CCOCC3)c3sc(CN(C)c4ncc(C(=O)NO)cn4)cc3n2)cn1 [Fimepinostat (CUDC-907)] (top concentration 10000 nM) | 10.3 | -3.82 | 7.28 | 10.9 | 4.68 | -4.02 | 9.18 | 10.7 | 10.9 | 8.68 | 10.9 | -1.22 | 9.18 | 5.28 | -3.42 | 1.78 | 5.18 | 2.78 | 5.28 | 5.18 |
| CC(C)C[C@H](NC(=O)[C@H](CCc1ccccc1)NC(=O)CN1CCOCC1)C(=O)N[C@@H](Cc1ccccc1)C(=O)N[C@@H](CC(C)C)C(=O)[C@@]1(C)CO1 [Carfilzomib] (top concentration 1000 nM) | 0.06 | 2.56 | 5.06 | 2.86 | 5.36 | 3.96 | 0.36 | 1.76 | 1.46 | 2.36 | 2.86 | -7.34 | 1.16 | 0.86 | 0.56 | -3.64 | 1.26 | 3.16 | -2.74 | 0.16 |
| CC(=O)c1cnc2ccc(-c3cc(Cl)c(O)c(Cl)c3)nc2c1N[C@H]1CC[C@H](CN(C)C)CC1 [OTS167] (top concentration 1000 nM) | 9.38 | 6.58 | 6.18 | 7.08 | -1.12 | -0.42 | 5.88 | 3.58 | 5.68 | -3.42 | -1.02 | -1.82 | 2.78 | -1.32 | -8.72 | -4.52 | -3.32 | 2.18 | 0.28 | -7.22 |
| CC(C)C[C@@H](C(=O)N[C@H](C(=O)OC1CCCC1)c1ccccc1)[C@H](O)C(=O)NO [Tosedostat] (top concentration 10000 nM) | 5.76 | 3.96 | 11.4 | -0.74 | 5.16 | -4.94 | 7.06 | 2.56 | 10.8 | 2.26 | 15.3 | -2.44 | 6.46 | -0.54 | 0.86 | 3.06 | -0.24 | -0.64 | 2.86 | 0.46 |
